Reference: ChEMBL document CHEMBL1201862, “PubChem BioAssay data set” (2004)
The source made the active and inactive calls.

What was measured:
[1] = viability of HCT116 lacking mutant beta-catenin – cell-based, human colon tumor, dose response (AID 1045); assay type: functional;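 note: HCT116 colon tumor cells with beta catenin knocked out; cells exposed to compound for 60 hours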
Streptococcus = assay: GAS UMAA2166 growth inhibition – luminescence, BacTiterGlo, counter-screen for streptokinase expression inhibitor project, dose response (AID 1915); assay type: functional, organism-based;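 note: potency for reduction of bacterial viability or growth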
[2] = THP-1 cell cytotoxicity, dose response, cytotoxicity control for non-replicating M. tuberculosis project (AID 489025); assay type: functional
cells = assay type: functional
[3] = molecular target: 5'-AMP-activated protein kinase catalytic subunit alpha-1 (Homo sapiens, UniProt Q13131); assay type: functional
5'-AMP-activated protein kinase catalytic subunit alpha-1, sequence (Q13131 whole entry): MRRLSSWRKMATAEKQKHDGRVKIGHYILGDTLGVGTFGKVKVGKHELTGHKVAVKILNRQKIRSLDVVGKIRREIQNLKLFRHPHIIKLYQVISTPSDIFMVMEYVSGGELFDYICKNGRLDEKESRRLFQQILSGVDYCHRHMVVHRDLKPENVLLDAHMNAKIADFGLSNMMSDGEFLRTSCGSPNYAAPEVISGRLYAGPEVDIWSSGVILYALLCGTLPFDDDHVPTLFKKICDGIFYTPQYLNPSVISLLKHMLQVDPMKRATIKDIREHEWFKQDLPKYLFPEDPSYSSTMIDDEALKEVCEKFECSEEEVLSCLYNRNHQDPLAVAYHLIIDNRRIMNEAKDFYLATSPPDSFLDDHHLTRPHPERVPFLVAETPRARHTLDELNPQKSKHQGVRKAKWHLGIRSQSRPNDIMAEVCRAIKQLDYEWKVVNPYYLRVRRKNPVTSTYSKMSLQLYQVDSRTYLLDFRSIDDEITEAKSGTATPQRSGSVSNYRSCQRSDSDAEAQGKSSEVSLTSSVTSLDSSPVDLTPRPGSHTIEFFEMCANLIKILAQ

[4] = molecular target: Death-associated protein kinase 3 (Homo sapiens, UniProt O43293); assay type: functional;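 note: measured as one member of a kinome-wide profiling panel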
Death-associated protein kinase 3, sequence (O43293 whole entry): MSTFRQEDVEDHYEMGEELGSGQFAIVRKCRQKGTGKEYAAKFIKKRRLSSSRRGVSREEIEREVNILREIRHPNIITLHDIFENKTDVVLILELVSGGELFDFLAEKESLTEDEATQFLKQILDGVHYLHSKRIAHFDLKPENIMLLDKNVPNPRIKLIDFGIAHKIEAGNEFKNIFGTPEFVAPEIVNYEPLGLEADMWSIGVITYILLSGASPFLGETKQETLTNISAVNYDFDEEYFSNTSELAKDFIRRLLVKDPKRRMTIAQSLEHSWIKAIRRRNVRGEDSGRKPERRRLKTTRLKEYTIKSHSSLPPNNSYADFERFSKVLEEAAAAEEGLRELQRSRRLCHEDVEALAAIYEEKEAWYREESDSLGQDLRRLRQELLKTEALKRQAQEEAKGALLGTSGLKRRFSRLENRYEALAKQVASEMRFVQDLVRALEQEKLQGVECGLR

[5] = molecular target: Serine/threonine-protein kinase pim-1 (Homo sapiens, UniProt P11309); assay type: functional
Serine/threonine-protein kinase pim-1, sequence (P11309 whole entry): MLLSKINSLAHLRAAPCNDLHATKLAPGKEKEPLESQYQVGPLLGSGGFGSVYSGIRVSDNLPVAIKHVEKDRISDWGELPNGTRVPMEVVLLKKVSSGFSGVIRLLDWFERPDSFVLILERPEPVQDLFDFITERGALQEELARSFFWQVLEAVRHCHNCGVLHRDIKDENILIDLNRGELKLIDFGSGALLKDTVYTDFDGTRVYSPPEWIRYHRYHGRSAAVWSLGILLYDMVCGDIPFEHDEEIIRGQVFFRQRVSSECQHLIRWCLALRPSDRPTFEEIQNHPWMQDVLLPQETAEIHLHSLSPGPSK

Aurora kinase A = Aurora kinase A (Homo sapiens, UniProt O14965); assay type: functional;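 note: value from the Navigating the Kinome kinase panel profiling, panel entry STK6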
Aurora kinase A, sequence (O14965 whole entry): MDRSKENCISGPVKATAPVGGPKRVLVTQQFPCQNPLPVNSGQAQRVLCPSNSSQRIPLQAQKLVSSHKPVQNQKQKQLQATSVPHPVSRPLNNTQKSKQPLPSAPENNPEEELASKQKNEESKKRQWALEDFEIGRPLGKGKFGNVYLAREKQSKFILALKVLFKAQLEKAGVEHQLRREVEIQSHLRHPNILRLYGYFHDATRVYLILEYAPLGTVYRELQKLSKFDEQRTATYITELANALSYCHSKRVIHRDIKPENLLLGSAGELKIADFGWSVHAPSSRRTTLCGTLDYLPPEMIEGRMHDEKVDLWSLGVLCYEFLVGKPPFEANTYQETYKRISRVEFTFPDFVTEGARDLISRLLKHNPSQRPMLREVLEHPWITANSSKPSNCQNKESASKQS

[6] = molecular target: Tyrosine-protein kinase BTK (Homo sapiens, UniProt Q06187); assay type: functional
Activated CDC42 kinase 1 = Activated CDC42 kinase 1 (Homo sapiens, UniProt Q07912); assay: Navigating the Kinome. Panel member name: ACK1; assay type: functional
Activated CDC42 kinase 1, sequence (Q07912 whole entry): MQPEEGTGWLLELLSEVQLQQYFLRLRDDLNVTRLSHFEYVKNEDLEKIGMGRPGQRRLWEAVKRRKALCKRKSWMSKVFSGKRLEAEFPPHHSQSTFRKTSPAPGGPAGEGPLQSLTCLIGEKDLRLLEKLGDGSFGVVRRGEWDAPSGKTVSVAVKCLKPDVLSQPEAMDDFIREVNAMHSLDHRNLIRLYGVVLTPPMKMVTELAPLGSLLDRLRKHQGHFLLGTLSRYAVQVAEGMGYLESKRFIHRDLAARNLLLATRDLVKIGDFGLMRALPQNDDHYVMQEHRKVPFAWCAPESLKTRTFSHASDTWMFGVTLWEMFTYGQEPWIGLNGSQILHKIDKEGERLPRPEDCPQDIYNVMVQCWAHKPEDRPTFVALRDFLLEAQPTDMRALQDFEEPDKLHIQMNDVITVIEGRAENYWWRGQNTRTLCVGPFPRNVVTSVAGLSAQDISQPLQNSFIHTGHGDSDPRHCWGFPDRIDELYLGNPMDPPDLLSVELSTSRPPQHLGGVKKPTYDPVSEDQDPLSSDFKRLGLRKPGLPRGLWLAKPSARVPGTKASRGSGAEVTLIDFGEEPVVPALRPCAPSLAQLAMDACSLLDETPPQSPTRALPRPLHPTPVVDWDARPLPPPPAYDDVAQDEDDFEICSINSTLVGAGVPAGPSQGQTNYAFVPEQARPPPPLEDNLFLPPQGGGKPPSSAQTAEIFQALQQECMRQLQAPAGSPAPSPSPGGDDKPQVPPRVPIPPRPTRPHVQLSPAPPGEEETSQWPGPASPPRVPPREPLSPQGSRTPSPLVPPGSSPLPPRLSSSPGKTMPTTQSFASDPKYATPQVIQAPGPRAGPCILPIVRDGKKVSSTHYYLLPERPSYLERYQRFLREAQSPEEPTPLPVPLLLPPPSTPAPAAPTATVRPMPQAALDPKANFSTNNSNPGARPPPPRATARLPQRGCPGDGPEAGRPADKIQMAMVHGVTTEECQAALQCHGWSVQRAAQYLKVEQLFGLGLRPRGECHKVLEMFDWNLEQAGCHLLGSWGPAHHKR

[7] = molecular target: T1, Receptor-type tyrosine-protein kinase FLT3 (Homo sapiens, UniProt P36888); assay type: functional;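 note: FLT3 was tested as one member of a kinome-wide kinase panel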
T1 sequence (P36888 whole entry): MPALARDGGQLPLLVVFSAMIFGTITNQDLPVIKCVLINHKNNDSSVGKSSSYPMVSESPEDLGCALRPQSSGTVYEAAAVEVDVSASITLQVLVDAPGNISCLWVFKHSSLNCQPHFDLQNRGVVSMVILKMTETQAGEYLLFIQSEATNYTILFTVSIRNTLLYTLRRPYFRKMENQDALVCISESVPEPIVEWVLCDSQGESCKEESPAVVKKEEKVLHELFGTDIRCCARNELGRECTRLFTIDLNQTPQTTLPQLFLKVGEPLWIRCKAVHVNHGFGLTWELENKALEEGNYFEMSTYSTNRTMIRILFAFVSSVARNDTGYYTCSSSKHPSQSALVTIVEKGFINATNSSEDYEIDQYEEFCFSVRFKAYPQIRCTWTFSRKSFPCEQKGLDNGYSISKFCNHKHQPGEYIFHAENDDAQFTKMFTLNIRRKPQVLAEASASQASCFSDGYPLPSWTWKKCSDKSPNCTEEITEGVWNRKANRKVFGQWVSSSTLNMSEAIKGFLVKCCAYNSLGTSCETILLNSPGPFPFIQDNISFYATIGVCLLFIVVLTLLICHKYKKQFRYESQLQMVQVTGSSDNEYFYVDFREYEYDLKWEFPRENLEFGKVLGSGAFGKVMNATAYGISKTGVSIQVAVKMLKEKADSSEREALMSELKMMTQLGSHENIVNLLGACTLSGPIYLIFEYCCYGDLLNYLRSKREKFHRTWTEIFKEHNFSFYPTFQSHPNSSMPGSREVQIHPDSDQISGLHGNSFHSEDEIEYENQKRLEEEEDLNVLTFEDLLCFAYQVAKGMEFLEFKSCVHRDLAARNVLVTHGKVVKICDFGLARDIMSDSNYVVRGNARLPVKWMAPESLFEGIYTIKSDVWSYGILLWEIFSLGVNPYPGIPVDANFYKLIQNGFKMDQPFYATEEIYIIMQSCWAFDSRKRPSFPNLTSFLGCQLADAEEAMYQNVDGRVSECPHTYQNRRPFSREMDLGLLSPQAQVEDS

[8] = molecular target: Insulin-like growth factor 1 receptor (Homo sapiens, UniProt P08069); assay: Navigating the Kinome. Panel member name: IGF1R; assay type: functional
Insulin-like growth factor 1 receptor, sequence (P08069 31-736 limits assumed): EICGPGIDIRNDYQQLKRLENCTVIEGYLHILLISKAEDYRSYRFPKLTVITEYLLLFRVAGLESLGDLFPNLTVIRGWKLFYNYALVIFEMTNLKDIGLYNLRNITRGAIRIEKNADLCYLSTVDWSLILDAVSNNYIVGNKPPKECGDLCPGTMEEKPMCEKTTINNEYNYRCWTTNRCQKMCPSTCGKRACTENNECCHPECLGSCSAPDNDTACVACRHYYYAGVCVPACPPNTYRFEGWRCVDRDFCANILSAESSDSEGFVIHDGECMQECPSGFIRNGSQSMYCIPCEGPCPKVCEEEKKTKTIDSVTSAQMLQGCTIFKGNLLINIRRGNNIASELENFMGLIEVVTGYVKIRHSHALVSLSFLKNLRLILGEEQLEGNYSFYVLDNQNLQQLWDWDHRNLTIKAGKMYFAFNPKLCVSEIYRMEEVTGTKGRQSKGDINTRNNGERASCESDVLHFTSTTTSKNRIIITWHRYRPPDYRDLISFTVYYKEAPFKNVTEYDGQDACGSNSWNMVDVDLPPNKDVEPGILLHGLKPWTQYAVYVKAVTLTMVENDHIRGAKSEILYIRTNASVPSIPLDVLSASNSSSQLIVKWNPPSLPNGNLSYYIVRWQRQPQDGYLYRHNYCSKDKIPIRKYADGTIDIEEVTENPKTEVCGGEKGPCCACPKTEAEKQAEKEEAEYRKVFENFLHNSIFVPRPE
Insulin-like growth factor 1 receptor, sequence (P08069 741-1367 limits assumed): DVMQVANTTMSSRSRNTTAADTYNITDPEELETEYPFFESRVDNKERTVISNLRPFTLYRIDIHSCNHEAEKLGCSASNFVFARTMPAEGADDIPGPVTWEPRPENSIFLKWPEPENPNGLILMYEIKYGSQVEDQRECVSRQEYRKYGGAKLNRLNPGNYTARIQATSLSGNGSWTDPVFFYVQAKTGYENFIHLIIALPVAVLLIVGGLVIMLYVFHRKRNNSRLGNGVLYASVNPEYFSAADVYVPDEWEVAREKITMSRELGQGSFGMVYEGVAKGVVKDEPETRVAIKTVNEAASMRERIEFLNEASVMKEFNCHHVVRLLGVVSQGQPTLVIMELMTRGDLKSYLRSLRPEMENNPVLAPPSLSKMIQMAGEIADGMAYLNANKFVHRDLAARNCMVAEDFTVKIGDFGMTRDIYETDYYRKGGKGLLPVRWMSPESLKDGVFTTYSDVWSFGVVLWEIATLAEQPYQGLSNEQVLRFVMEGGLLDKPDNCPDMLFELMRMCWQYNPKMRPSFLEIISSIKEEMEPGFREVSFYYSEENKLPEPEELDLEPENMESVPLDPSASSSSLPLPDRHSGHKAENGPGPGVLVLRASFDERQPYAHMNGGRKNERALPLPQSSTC

[9] = molecular target: T2, cAMP-dependent protein kinase catalytic subunit PRKX (Homo sapiens, UniProt P51817); assay type: functional
T2 sequence (P51817 whole entry): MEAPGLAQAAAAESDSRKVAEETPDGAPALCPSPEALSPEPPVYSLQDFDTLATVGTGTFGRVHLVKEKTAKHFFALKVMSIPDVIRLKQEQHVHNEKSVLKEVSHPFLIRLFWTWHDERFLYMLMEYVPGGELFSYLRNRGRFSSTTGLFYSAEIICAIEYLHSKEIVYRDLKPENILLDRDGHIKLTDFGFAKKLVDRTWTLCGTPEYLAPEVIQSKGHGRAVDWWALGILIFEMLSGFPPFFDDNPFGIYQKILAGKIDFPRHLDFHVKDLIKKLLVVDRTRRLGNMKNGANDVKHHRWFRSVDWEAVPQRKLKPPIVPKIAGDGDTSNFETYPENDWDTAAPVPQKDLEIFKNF

[10] = molecular target: T3, Inhibitor of nuclear factor kappa-B kinase subunit epsilon (Homo sapiens, UniProt Q14164); assay: Navigating the Kinome. Panel member name: IKBKE; assay type: functional
T3 sequence (Q14164 whole entry): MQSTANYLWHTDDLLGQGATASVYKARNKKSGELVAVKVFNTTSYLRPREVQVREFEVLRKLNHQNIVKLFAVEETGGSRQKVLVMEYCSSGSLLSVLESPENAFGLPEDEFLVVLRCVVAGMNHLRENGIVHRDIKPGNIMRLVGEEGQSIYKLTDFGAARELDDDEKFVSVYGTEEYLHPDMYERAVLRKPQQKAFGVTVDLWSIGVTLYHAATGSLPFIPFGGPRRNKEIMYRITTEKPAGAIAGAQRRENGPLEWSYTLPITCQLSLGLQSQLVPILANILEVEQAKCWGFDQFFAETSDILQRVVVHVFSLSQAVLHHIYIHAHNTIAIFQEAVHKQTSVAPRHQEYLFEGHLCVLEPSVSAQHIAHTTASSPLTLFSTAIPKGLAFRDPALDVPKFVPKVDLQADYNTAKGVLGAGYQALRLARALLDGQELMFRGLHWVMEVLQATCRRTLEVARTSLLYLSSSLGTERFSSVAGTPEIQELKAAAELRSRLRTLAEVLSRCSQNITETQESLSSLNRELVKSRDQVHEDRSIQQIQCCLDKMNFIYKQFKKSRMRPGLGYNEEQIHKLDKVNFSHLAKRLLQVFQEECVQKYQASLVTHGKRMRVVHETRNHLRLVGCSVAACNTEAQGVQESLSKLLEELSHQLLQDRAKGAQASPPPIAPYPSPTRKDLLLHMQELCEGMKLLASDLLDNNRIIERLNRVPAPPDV

[11] = molecular target: Leukocyte tyrosine kinase receptor (Homo sapiens, UniProt P29376); assay: Navigating the Kinome. Panel member name: LTK; assay type: functional
Leukocyte tyrosine kinase receptor, sequence (P29376 whole entry): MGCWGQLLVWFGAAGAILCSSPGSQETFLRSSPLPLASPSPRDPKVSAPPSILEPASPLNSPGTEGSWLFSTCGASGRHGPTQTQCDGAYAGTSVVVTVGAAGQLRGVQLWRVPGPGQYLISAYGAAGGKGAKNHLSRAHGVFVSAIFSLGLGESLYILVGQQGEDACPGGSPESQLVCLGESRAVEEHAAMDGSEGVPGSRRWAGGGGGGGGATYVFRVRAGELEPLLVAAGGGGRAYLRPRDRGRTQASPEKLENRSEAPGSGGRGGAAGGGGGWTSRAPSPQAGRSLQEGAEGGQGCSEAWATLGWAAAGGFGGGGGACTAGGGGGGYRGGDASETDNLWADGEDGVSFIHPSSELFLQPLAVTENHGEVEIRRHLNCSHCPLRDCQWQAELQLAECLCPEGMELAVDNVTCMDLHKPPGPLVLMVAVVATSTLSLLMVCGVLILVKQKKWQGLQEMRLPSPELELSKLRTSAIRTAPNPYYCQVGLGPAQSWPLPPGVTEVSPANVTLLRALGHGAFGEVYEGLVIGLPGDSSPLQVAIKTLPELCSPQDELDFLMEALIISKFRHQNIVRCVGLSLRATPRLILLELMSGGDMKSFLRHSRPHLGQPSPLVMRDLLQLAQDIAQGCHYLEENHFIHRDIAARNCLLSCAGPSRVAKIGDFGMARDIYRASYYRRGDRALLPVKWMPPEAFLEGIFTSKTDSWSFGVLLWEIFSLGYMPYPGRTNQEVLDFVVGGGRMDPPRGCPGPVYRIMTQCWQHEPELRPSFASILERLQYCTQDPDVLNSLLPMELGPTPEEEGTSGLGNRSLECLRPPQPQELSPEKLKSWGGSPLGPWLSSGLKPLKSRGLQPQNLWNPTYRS

With `CCOC(=O)c1ccc(NC2=CC(=O)C(=O)c3ccccc32)cc1` the EC50 [1] was 13.8 µM (active), the EC50 (Streptococcus) was 9.24 µM (active) and the CC50 [2] was 15.2 µM (active). For the same molecule, the IC50 (cells) was 19.2 µM (active).

With `OC(CNCCC1C=Nc2ccccc21)Cn1c2ccc(Cl)cc2c2cc(Cl)ccc21` (stereo not drawn) the EC50 [1] was 2.7 µM (active).

For `CCCCCCCCCCCCCCCC[N+](C)(C)C`, the EC50 (Streptococcus) was 7.77 µM (active).

With `NC1CCC(Nc2nc(Cl)cc(-c3c[nH]c4ncccc34)n2)CC1` (stereo not drawn) the Ki [3] was 0.0398 µM (active), the pKi [3] was 7.4 and the Ki [4] was 0.0501 µM (active). The pKi [4] was 7.3, the Ki [5] was 0.126 µM (active) and the pKi [5] was 6.9. For the same molecule, the Ki (Aurora kinase A) was > 1.58 µM (inactive), the Ki [6] was > 6.31 µM (inactive) and the Ki (Activated CDC42 kinase 1) was 2 µM (active). For the same molecule, the pKi (Activated CDC42 kinase 1) was 5.7, the Ki [7] was 0.00631 µM (active) and the pKi [7] was 8.2. The Ki [8] was > 2.51 µM (inactive), the Ki [9] was 0.00316 µM (active) and the pKi [9] was 8.5. For the same molecule, the Ki [10] was 2.51 µM (active), the pKi [10] was 5.6 and the Ki [11] was 0.126 µM (active). The pKi [11] was 6.9.

In the case of `O=C(O)C1CN(Cc2ccc(OCc3ccccc3)cc2Cl)C1`, the Ki [3] is reported as > 3.16 µM (inactive), the Ki [4] is reported as > 5.01 µM (inactive) and the Ki [5] is reported as > 6.31 µM (inactive). For the same molecule, the Ki (Aurora kinase A) was > 1.58 µM (inactive), the Ki [6] was > 6.31 µM (inactive) and the Ki (Activated CDC42 kinase 1) was > 3.98 µM (inactive). The Ki [7] was > 3.16 µM (inactive), the Ki [8] was > 2.51 µM (inactive) and the Ki [9] was 1.26 µM (active). The Ki [10] was > 3.16 µM (inactive) and the Ki [11] was > 2.51 µM (inactive).

For `Cc1ccccc1-c1cc2c(nn1)-c1ccccc1C2=O`, the CC50 [2] was 36.2 µM (active) and the IC50 (cells) was 14.7 µM (active).
